# Assays:
# [1] = biological target: recombinant APS3v-HLA-DR3 (Homo sapiens, UniProt P01903+P01911, A100K/A102G/A103R/F55Y/I96L/K41T/P40S/Q125H/Q178H/Q39Y/R42S/S66N/T106N/W38E/Y61H); assay: ELISA inhibition assay of biotinylated peptide binding to recombinant APS3v-HLA-DR3
# Description: An in vitro binding assay was performed. […] On the day before the immunoassay was performed, a 96-well DELFIA yellow plate (PerkinElmer Life Science) was coated overnight with 20 μg/ml of L243 antibody [Hybridoma was purchased from ATCC, catalogue number HB-55, and IgG was purified by QED Bioscience (San Diego, CA)] in bicarbonate buffer, pH 9.6 (Sigma-Aldrich). L243 is a monoclonal antibody that specifically recognizes the DRa chain of HLA-DR when it is properly folded and complexed with the b chain. The plate was then washed with DELFIA wash buffer (diluted 1:25 from DELFIA wash concentrate, PerkinElmer) to wash off the excess L243 antibody. Blocking was performed using 2.5% BSA in PBS at room temperature for 1 h. After washing 4 times, 100 μl of the pre-incubated mix (containing recombinant APS3v-HLA-DR3 protein, APO, and small molecules) were added onto the plate and shaken at slow speed for 2 h at room temperature. After washing 4 times, DELFIA Europium-labeled streptavidin (PerkinElmer) diluted in DELFIA assay buffer (PerkinElmer) was added for 30 min and shaken at slow speed at room temperature. After washing for 6 times, DELFIA Enhancement Solution was added for 1 h until the optimal signal was reached. Time-resolved fluorescence was measured using the BMG reader (BMG Labtech, Cary, NC). A virtual screen identified 100 small molecules that were predicted to block the unique APS3v-HLA-DR3 pocket. To produce a manageable selection of compounds for validation we clustered the 100 compounds by their simplified molecular input line entry system (SMILES) similarity into 20 clusters. Of the 20 clusters we selected the top scoring members in each cluster. We have enhanced this list to include a total of 11 compounds that blocked APS3v-HLA-DR3, the key HLA-DR3 pocket that triggers APS3v. We tested the selected 11 small molecules identified by the virtual screen in our in vitro ELISA, to test whether the 11 small molecules can block APO peptide (the strongest known peptide binder to HLA-DR3) binding to recombinant APS3v-HLA-DR3. Of the 4 validated small molecules we selected S53 for further testing because it is the only one that has been used in humans before. […] ELISA was performed as previously described.
# [2] = system: humanized NOD-DR3 mice; assay: Free T4 and anti-mouse Tg antibody levels in cepharanthine-treated immunized mice; format: in vivo; settings: data not shown
# Description: Autoantibody Measurements: Sera were collected from mice upon sacrifice and stored in −20° C. Nunc™ Maxisorp™ ELISA plate (Thermo Fisher Scientific, Waltham, MA) was coated with 10 μg/ml of either Tg.1571, GAD.492, TPO.758 or mouse Tg in bicarbonate buffer (Sigma-Aldrich) at pH 9.6 and incubated overnight. The ELISA plate was washed 4 times with PBS supplemented with 0.05% Tween (Sigma-Aldrich) [PBST]. After blocking with 2.5% BSA in PBST for 1 h at 37° C., the plate was washed with PBST for 6 times. 100 μl of the diluted sera (1:100 in 0.5% BSA/PBS) was added for 2 h with slow shaking at room temperature. After washing for 6 times with PBST, anti-mouse IgG secondary antibody (Sigma-Aldrich) was added at 1:30,000 dilution in 1% BSA/PBST and incubated for 30 min at 37° C. After washing the plate for 4 times with PBST, the freshly prepared paranitrophenylphosphate substrate (Sigma-Aldrich) was added for 1 h and the plate was read at 405 nm using the BMG reader (BMG Labtech, Cary, NC).
# Free T4 Measurements: Sera were collected from mice and were assayed for free thyroxin (fT4) measurements using free thyroxine ELISA kit (Alpha Diagnostic International, San Antonio, TX, catalog no. 1110). Assay was performed according to manufacturer's protocol. […] Absorbance at 450 nm was measured using a BMG ELISA reader (BMG Labtech). […]
# Sequence of recombinant APS3v-HLA-DR3 (P01911 30-227 W38E/Q39Y/P40S/K41T/R42S/F55Y/Y61H/S66N/I96L/A100K/A102G/A103R/T106N/Q125H/Q178H): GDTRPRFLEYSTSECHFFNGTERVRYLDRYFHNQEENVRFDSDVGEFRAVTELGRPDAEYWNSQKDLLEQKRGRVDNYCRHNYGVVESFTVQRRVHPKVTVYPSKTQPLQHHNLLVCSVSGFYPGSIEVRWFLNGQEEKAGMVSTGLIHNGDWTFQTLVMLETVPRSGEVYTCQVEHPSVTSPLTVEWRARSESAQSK
# Sequence of recombinant APS3v-HLA-DR3 (P01903 26-216): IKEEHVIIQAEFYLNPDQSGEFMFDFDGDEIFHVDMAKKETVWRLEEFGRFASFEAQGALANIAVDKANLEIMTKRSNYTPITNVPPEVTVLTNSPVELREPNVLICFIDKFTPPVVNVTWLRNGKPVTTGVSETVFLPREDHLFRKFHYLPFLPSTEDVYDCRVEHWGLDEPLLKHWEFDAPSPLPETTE
smiles,measurement,setting,value
"COc1ccc2cc1Oc1ccc(cc1)C[C@H]1c3c(cc4c(c3Oc3cc5c(cc3OC)CCN(C)[C@@H]5C2)OCO4)CCN1C [S53, Cepharanthine]","inhibition of binding of the 3 peptides (TPO.758, GAD.492, Tg.1571) to the HLA-DR3 pocket","[1]; ELISA inhibition assay, final concentration 0.4 mM",significant inhibition of binding for all 3 peptides
same,"blocking of binding of biotinylated APO, TPO.758, GAD.492 and Tg.1571 to APS3v-HLA-DR3","[1]; decreasing doses 0.4 mM, 0.2 mM, 0.1 mM, 0.05 mM",blocked the binding of each peptide in a dose-dependent manner
same,antibody levels against mouse Tg,[2],did not significantly affect
same,free T4 levels,[2],did not significantly affect

# Reference: patent US20240342158A1, “METHOD OF TREATING AND/OR PREVENTING TYPE 1 DIABETES WITH CEPHARANTHINE” (ALBERT EINSTEIN COLLEGE OF MEDICINE, priority 2021, published 2024)
